# Patent publication US5001158A, “Nitrosoureas compounds preparation thereof and utilization thereof in anticancerous” (Centre National de la Recherche Scientifique, priority 1990, dated 1991)
# Columns and labels:
# [1] = Plasma concentrations of A1 and A2 after oral administration, rats; format: in vivo; conditions: rat, n = 5; for concentration at 1.5 h: 1 H 30 MIN; for concentration: 3 H; for concentration at 0.25 h: 15 MIN; for concentration at 0.5 h: 30 MIN; for concentration at 0.75 h: 45 MIN
# Procedure: (§1) The plasma absorption and clearance kinetics of the products A1 and A2 according to the invention were studied on different animal species after oral administration. A mixture A1 A2 in the proportions 70%/30% was used so as to be able to make a comparison with CNCC. The mixture A1 A2 and the CNCC were administered at equivalent doses and the plasma concentrations of A1 and A2 were measured as a function of time. cl (a) Experimental protocol
# (§2) A solution of the mixture A1 A2 in distilled water is administered by stomach tube at a dose of 574 mg/m^2. A suspension of CNCC in olive oil is administered at a dose of 500 mg/m^2, also by stomach tube.
# (§3) The blood, taken by cardiac puncture, is centrifuged rapidly at 4° C. The plasma (1 ml) is deposited on a cartridge of Extrelut® and extraction is carried out with 6 ml of methylene chloride. After evaporation, the dry extract is taken up in 150 μl of methylene chloride for chromatographic analysis.
# (§4) Analysis of the plasma extracts for measuring the concentrations of A1 and A2 was performed by high performance liquid chromatography using the following technology:
# (§5) Detector: Pye Unicam spectrophotometer (Philips)λ250 nm.
# (§6) Elution carried out by means of a linear gradient ranging from methylene chloride 99.6%/ethanol 0.4% to methylene chloride 95%/ethanol 5% in 15 minutes
# [2] = Plasma concentrations of A1 and A2 after oral administration, rabbits; format: in vivo; conditions: rabbit, n = 5; for concentration at 1.5 h: 1 H 30 MIN; for concentration: 3 H; for concentration at 4.5 h: 4 H 30 MIN; for concentration at 0.25 h: 15 MIN; for concentration at 0.5 h: 30 MIN; for concentration at 0.75 h: 45 MIN
# Procedure: as §1, §2, §3, §4, §5, §6
# [3] = Plasma concentrations of A1 and A2 after oral administration, mice; format: in vivo; conditions: mouse, n = 10; for concentration at 1.5 h: 1 H 30 MIN; for concentration: 3 H; for concentration at 4.5 h: 4 H 30 MIN; for concentration at 0.25 h: 15 MIN; for concentration at 0.5 h: 30 MIN; for concentration at 0.75 h: 45 MIN
# Procedure: as §1, §2, §3, §4, §5, §6
# leukemia L 1210 = assay: Antitumoral activity of A1 and A2 on leukemia L 1210 grafted i.p. in mice (ICIG); format: in vivo, mice (B6 D2 F1 OLA)
# Procedure: This activity was also studied on mice carrying leukemia L 1210 grafted i.p. This experimental tumor is the one most frequently used in the primary screening of cytostatic drugs.
# These tests were conducted in parallel in two laboratories: at Unit 71 of the Institut National de la Sante et de la Recberche Mediecale (INSERM), ClermontFerrand, and at the Institut de Cancerologie et d' Immunogenetique (ICIG), Villejuif.
# On day D:0, three-month-old male B6 D2 F1 mice received 10^5 cells of the leukemia strain L 1210 by intraperitoneal administration. The animals are divided up into groups of 8 to 10 animals for the control groups and 6 to 8 animals for the treated groups. On days D:1, D:5 and D:9, the animals receive the treatment at different doses by intraperitoneal or intravenous administration. The CNCC is administered as a suspension in olive oil. The products according to the invention are administered in physiological serum. The mortality is recorded every day. The survival median was determined for the treated animals and the control animals. The results are considered to be positive if the index I= [formula] is greater than 125.
# The value .infin. means that 50% to 100% of the animals have survived to day D:90.
# The cytostatic activity oi A1 and A2 on leukemia L 1210 was evaluated on B6 D2 F1 OLA mice at ICIG.
# ICIG also studied the antitumoral activity of each isomer A1 and A2, separately administered intravenously, on leukemia L 1210. […] Comparison of the active doses with those of CNCC is impossible because of the insolubility of CNCC, as mentioned previously.
# [4] = Pharmacokinetic comparison of mixture A1 A2 with CNCC, all animal species; format: in vivo, mice, rats and rabbits; conditions: p.o.
# Procedure: as §1, §2, §3, §4
# The plasma concentrations of A1 and A2 after oral administration of either the mixture A1 A2 or CNCC to mice, rats and rabbits are reported in Table V.
# [5] = after mixture A1 A2 574 mg/m^2 p.o.
smiles,measurement,setting,value
C[S+]([O-])CCNC(=O)N(CCCl)N=O (stereo not drawn) [Compound A2],concentration at 1.5 h,[1]; after CNCC 500 mg/m^2 p.o.,11.4 µM
same,concentration at 1 h,[1]; after CNCC 500 mg/m^2 p.o.,8.1 µM
same,concentration at 2 h,[1]; after CNCC 500 mg/m^2 p.o.,6.4 µM
same,concentration,[1]; after CNCC 500 mg/m^2 p.o.,6.5 µM
same,concentration at 4.5 h,"[1]; after CNCC 500 mg/m^2 p.o., 4 H 30 MIN",2.2 µM
same,concentration at 5 min,[1]; after CNCC 500 mg/m^2 p.o.,0.9 µM
same,concentration at 0.25 h,[1]; after CNCC 500 mg/m^2 p.o.,3.2 µM
same,concentration at 0.5 h,[1]; after CNCC 500 mg/m^2 p.o.,5.4 µM
same,concentration at 0.75 h,[1]; after CNCC 500 mg/m^2 p.o.,7.2 µM
same,concentration at 1.5 h,[1]; [5],12.9 µM
same,concentration at 1 h,[1]; [5],14.2 µM
same,concentration at 2 h,[1]; [5],7.8 µM
same,concentration,[1]; [5],2.9 µM
same,concentration at 5 min,[1]; [5],8.5 µM
same,concentration at 0.25 h,[1]; [5],17.7 µM
same,concentration at 0.5 h,[1]; [5],22.5 µM
same,concentration at 0.75 h,[1]; [5],11.4 µM
same,concentration at 1.5 h,[2]; after CNCC 500 mg/m^2 p.o.,4.2 µM
same,concentration at 2 h,[2]; after CNCC 500 mg/m^2 p.o.,3.5 µM
same,concentration,[2]; after CNCC 500 mg/m^2 p.o.,2 µM
same,concentration at 4.5 h,[2]; after CNCC 500 mg/m^2 p.o.,1 µM
same,concentration at 5 min,[2]; after CNCC 500 mg/m^2 p.o.,1.8 µM
same,concentration at 0.25 h,[2]; after CNCC 500 mg/m^2 p.o.,5 µM
same,concentration at 0.5 h,[2]; after CNCC 500 mg/m^2 p.o.,6 µM
same,concentration at 0.75 h,[2]; after CNCC 500 mg/m^2 p.o.,5.5 µM
same,concentration at 1.5 h,[2]; [5],9.2 µM
same,concentration at 1 h,"[2]; after mixture A1 A2 574 mg/m^2 p.o., 1 H",14.2 µM
same,concentration at 2 h,[2]; [5],6.3 µM
same,concentration,[2]; [5],2.9 µM
same,concentration at 4.5 h,[2]; [5],0.7 µM
same,concentration at 5 min,[2]; [5],11 µM
same,concentration at 0.25 h,[2]; [5],11.7 µM
same,concentration at 0.5 h,[2]; [5],16.5 µM
same,concentration at 0.75 h,[2]; [5],15 µM
same,concentration at 1.5 h,[3]; after CNCC 500 mg/m^2 p.o.,12.7 µM
same,concentration at 1 h,[3]; after CNCC 500 mg/m^2 p.o.,19 µM
same,concentration at 2 h,[3]; after CNCC 500 mg/m^2 p.o.,9.9 µM
same,concentration,[3]; after CNCC 500 mg/m^2 p.o.,6.7 µM
same,concentration at 4.5 h,[3]; after CNCC 500 mg/m^2 p.o.,3.5 µM
same,concentration at 5 min,[3]; after CNCC 500 mg/m^2 p.o.,5.3 µM
same,concentration at 0.25 h,[3]; after CNCC 500 mg/m^2 p.o.,13.2 µM
same,concentration at 0.5 h,[3]; after CNCC 500 mg/m^2 p.o.,35.7 µM
same,concentration at 0.75 h,[3]; after CNCC 500 mg/m^2 p.o.,16.5 µM
same,concentration at 1.5 h,[3]; [5],10.8 µM
same,concentration at 1 h,[3]; [5],29.9 µM
same,concentration at 2 h,[3]; [5],6.3 µM
same,concentration,[3]; [5],2.9 µM
same,concentration at 4.5 h,[3]; [5],0.9 µM
same,concentration at 5 min,[3]; [5],83 µM
same,concentration at 0.25 h,[3]; [5],81.5 µM
same,concentration at 0.5 h,[3]; [5],66.3 µM
same,concentration at 0.75 h,[3]; [5],43.7 µM
same,T/C × 100,leukemia L 1210; 5 mg/kg i.v.,.infin. (50% to 100% of the animals have survived to day D:90)
same,T/C × 100,leukemia L 1210; 10 mg/kg i.v.,.infin. (50% to 100% of the animals have survived to day D:90)
same,interval between doses for maximum efficacy (IDME),leukemia L 1210; i.v.,presence of an IDME
same,percentage of mice surviving to day D:100 (in words),leukemia L 1210; i.v.,high percentage
same,antitumoral activity (in words),"leukemia L 1210; i.v., isomers separately",high activity
same,bioavailability compared with CNCC (in words),[4],greater than that of CNCC
same,plasma concentrations after A1 A2 compared with after CNCC (in words),"[4]; equivalent doses, whatever the animal species",much higher
same,plasma concentration after A1 A2 compared with after CNCC (in words),[4]; preliminary data,considerably greater
